Data reported in ChEMBL document CHEMBL3507680, “University of Dundee, Gates Library screen for HepG2 cell viability”.

Experiment: Human HepG2 cell viability assay in 384 well format
Format: toxicity, cell-based
Design: dose 125 nL, time 70.5 hour; concentration not given beside the values
Conditions: HepG2 cells, read-out: Inhibition

| Structure (SMILES) | cytotoxicity at 70.5 h [%] |
| --- | --- |
| O=C(CCc1cc2n(n1)CCNC2)NCCS(=O)(=O)N1CCCC1 | -11.2 |
| COc1cccc(Cc2nnc(SCCS(C)(=O)=O)o2)c1 | -8.26 |
| NC(=O)CN1CCC(NC(=O)Nc2nccs2)CC1 | 21.5 |
| Cc1ccc(C(=O)N2CCO[C@H]3[C@H](OCCN(C)C)CC[C@@H]32)cn1 | -1.99 |
| CN1CCN(Cc2cnc3n2CCN(C(=O)c2ccnnc2)C3)CC1 | -14.6 |
| Cc1cnn(CC(C)NCc2nc(-c3ccsc3)oc2C)c1 (stereo not given) | -8.91 |
| Cc1nc(C)n(CC2CCCN2CC(=O)NCc2ccco2)n1 (stereo not given) | -2.21 |
| CS(=O)(=O)N1C[C@@H]2COC[C@]2(C(=O)NCCc2cccs2)C1 | -7.21 |
| CN(C(=O)NCc1nccn1Cc1ccccc1)C1CC1 | 9.16 |
| O=C(CCc1cscn1)N1CCCC(n2ccnc2)C1 (stereo not given) | 2.29 |
| O=C(Nc1ccc(F)cc1)N(CCC(F)(F)F)C[C@H](O)CO | -0.146 |
| Cn1cc(NC(=O)NC2CCCN(c3ccccc3Cl)C2=O)cn1 (stereo not given) | -5.63 |
| Cc1ncccc1CNC1CCCN(Cc2noc(C3CC3)n2)C1 (stereo not given) | 0.441 |
| CC[C@]12CN3C[C@](C)(CN(C1)C3c1[nH]c(=O)[nH]c(=O)c1C)C2=O (stereo not given in full) | -2.75 |
| c1cc(-c2nnc(C3CCCN(CC4CCCCC4)C3)o2)ccn1 (stereo not given) | -5.12 |
| O=C(CCc1ccc(-n2cnnn2)cc1)Nc1ccncc1 | -7.21 |
| CC(CO)CN(Cc1ccccc1)C(=O)c1csc(CN(C)C)n1 (stereo not given) | -3.43 |
| Cc1c(C[S+](C)[O-])cccc1NC(=O)c1cc(Cl)ccn1 (stereo not given) | -2.39 |
| Cn1cc(CN2CCC[C@]3(C(=O)O)CN(c4cnccn4)CC[C@@H]23)cn1 | -2.41 |
| Cc1cc(CN2CCC=C(CN(C)C(=O)c3ccco3)C2)no1 | -7.11 |
| CCn1cnnc1CN(C)Cc1nc(-c2cc(OC)ccc2F)oc1C | -6.85 |
| CC(C(N)=O)N(C)Cc1ccccc1C(F)(F)F (stereo not given) | -87.9 |
| COc1ccccc1C1CCN(C(=O)c2ncccc2OC(C)C)C1 (stereo not given) | -1.72 |
| Cc1cnn(CCNCc2c(C)nn(C)c2Cl)c1 | -4.35 |
| Cc1ccc(C(=O)N2CCC3(CC2)c2ccccc2[C@@H](N)[C@@H]3O)c(=O)[nH]1 | -7.97 |
| Cn1ncnc1CNC1CCc2cc(Cl)ccc21 (stereo not given) | -19.7 |
| Cc1nc(C2CCCN2Cc2ccn(C)c(=O)c2)no1 (stereo not given) | 0.568 |

| Structure (SMILES) | cytotoxicity at 70.5 h [%] |
| --- | --- |
| Cc1ccnn1CCC(=O)N1CCCC2(C1)NC(=O)c1ccccc1O2 (stereo not given) | -2.25 |
| c1ccc2c(c1)N(CC1CCOC1)CC21CCN(c2cnccn2)CC1 (stereo not given) | -0.723 |
| O=C1[C@H]2CN(Cc3cccs3)C[C@H]2CN1CCN1CCCC1 | 12 |
| Cc1ccc(CN2CCC3(CC2)C(=O)Nc2ccccc23)s1 | -7.74 |
| CC(=O)N1CCc2ccccc2C1CC(=O)NCc1nnc(C)o1 (stereo not given) | 27.7 |
| Cc1ccc(-c2nn3c(nc2=O)-c2ccccc2NC3C(=O)O)cc1C (stereo not given) | 3.4 |
| CSCc1ccc(CNCCN2CCOCC2)o1 | -12.8 |
| Cc1cc(C2CCCN2C(=O)COc2ccc(CC#N)cc2)on1 (stereo not given) | -9.16 |
| COc1cc(NCCNC(=O)c2cscc2C)cc(OC)c1 | -2.4 |
| Cc1ccc(F)c2c1N(C(=O)c1ccc(S(C)(=O)=O)cc1)CCC2 | -10.6 |
| NC(=O)N1Cc2nccn2CC(Cn2ncccc2=O)C1 (stereo not given) | 1.65 |
| CCOc1ccc(CC(=O)N2CCCC(n3nc(C)nc3C)C2)cc1 (stereo not given) | -5.27 |
| CC1CCN(C(CNC(=O)CCn2cccn2)c2cccs2)CC1 (stereo not given) | -1.29 |
| CCOC(=O)c1cnn(-c2cc(Oc3cc(C)ccc3C)ncn2)c1N | -0.831 |
| CNC(=O)c1ccc(S(=O)(=O)NCc2cccnc2N(C)C)cc1 | -6.39 |
| CCN(C)CC1CCN(C(=O)NCCC2Cc3ccccc3C2)C1 (stereo not given) | -6.72 |
| CCc1nnc(CN(CC)C(=O)C(C)n2ccnc2C(C)C)o1 (stereo not given) | -5.37 |
| CCN(Cc1ccoc1)C(=O)c1cc(C)c(C)c(S(N)(=O)=O)c1 | -9.16 |
| O=C(CCn1ccnn1)N1CCCC(n2cncn2)C1 (stereo not given) | -6.6 |
| COCc1nc(N2CC[C@H](N(C)C)C2)c2cnn(C)c2n1 | -10 |
| CCC[C@H]1CN(Cc2ccc(N(C)C)nc2)C[C@@H]1NC(=O)CSC | -6.28 |
| CN(C)C[C@H]1OC[C@@H]2CCN(C(=O)NCc3cccc(F)c3)C[C@@H]21 | -5.72 |
| CC(C)c1nc(C2CCCN2C(=O)c2cc(Cl)c[nH]2)no1 (stereo not given) | -2.12 |
| CCCn1ccnc1CN1CCc2[nH]cnc2C1Cc1ccccc1 (stereo not given) | -4.4 |
| COc1ccccc1OC1(C(=O)O)CCN(c2ncnc(C)c2C)CC1 | 17.6 |
| Cc1[nH]c2ccccc2c1-c1ccnc(N[C@@H](C)CO)n1 | -3.05 |
| CCc1ccccc1NC(=O)N1CCn2cnc(COC)c2C1 | -7.61 |

| Structure (SMILES) | cytotoxicity at 70.5 h [%] |
| --- | --- |
| CN(C)c1cc2c(nn1)CCN(C(=O)Cc1ccc3c(c1)CCC3)C2 | -1.75 |
| CCC(C)(C)NC(=O)CN(C)C(c1cccc(F)c1)c1ccccn1 (stereo not given) | 0.639 |
| Cc1cccnc1[C@]1(O)CC[C@H]2CN(Cc3cccc(Cl)c3Cl)C[C@H]21 | -3.29 |
| CC(C)O[C@H]1CN(Cc2cnc3c(-c4ccccc4)cnn3c2)C[C@@H]1O | -5.99 |
| COCCCN1C(=O)CC[C@H]2CN(c3ccc(C(N)=O)cn3)CC[C@H]21 | 4.03 |
| COC(=O)C1CCCCN1C(=O)c1cn(C/C=C/c2ccccc2)nn1 (stereo not given) | 23.4 |
| CCC(=O)NCc1ccccc1Cn1ccnc1 | -2.6 |
| Cc1ncc(CN2CCCC2)c2cc(C(=O)c3ccc(Br)cc3)oc12 | -14.3 |
| COc1ccc(OCCNc2cccc(C(=O)N3CCOCC3)c2)cc1 | -3.69 |
| c1cc2c(cc1C[C@@H]1CC[C@H](CN3CCCOCC3)O1)OCO2 | -5.03 |
| COCCCN(CCOC)C(=O)Nc1ccc(Br)cc1 | -7.21 |
| c1cc(CN2CCO[C@@H]3CNC[C@@H]32)co1 | 3.81 |
| Cc1cc(CN2CCCC2c2c(C)nn(C)c2Cl)no1 (stereo not given) | 4.73 |
| CCc1nc(CNCC2CCCN2c2cccnn2)no1 (stereo not given) | -4.56 |
| CC[C@H](Cn1ncc2ccccc2c1=O)NC(=O)c1cnc(C)cn1 | -12.4 |
| CCN(C(=O)c1cccc2c1OCO2)c1ccccc1 | -4.98 |
| Cc1nn(C)c(C)c1C1CCCN1CC(=O)NC(C1CC1)C1CC1 (stereo not given) | -2.06 |
| CCc1ccc(CN2C[C@@H]3COC[C@H](NS(C)(=O)=O)[C@@H]3C2)o1 | -18.1 |
| CN(Cc1cncnc1)[C@H]1CN(C(=O)c2ccc[nH]2)[C@@H]2CCCO[C@@H]21 | -8.37 |
| Cc1cc(C)n(CC(=O)NCc2ccccn2)n1 | -10.7 |
| CC(Cn1cncn1)NCc1n[nH]c2c1CCCCC2 (stereo not given) | -10.2 |
| CCc1n[nH]c(C2CN(C(=O)c3nc(C)ncc3Cl)CCO2)n1 (stereo not given) | -7.75 |
| Cc1ccc(C(=O)N2CCN(C(=O)C(C)n3ccnc3)CC2)cc1F (stereo not given) | -5.92 |
| Cc1nc(CN(CCS(C)(=O)=O)C(C)(C)C)no1 | 42.5 |
| COCc1ccc(C(=O)N2CCC(Oc3ccccc3)(C(=O)O)CC2)o1 | 17.3 |
| CN1CCN(c2ccccc2NC(=O)NCCc2ccccc2)CC1 | -5.11 |
